GI50 data for one molecule are collected here from patent US20050059585A1, “Methionine aminopeptidase-2 inhibitors and methods of use thereof” (Praecis Pharmaceuticals Inc., priority 2000, published 2005).

The GI50 is the concentration giving 50% growth inhibition. High values mean less potent growth inhibition, low ones more potent growth inhibition.

Experiment in all cases: tumor cell line panel, SRB growth assay
Holding throughout (assay type): cell-based

The subject of one assay is 786-0. The note with it: Homo sapiens; 786-0, Renal, 48 hours. Here is the method:
(§1) The compound of example 5 was also evaluated against a panel of cancer cell lines (Alley, M.C. et al. […] Cancer Research 48: 589-601; Grever, M. R., et al. (1992) Seminars in Oncology, Vol. 19, No. 6, pp 622-638; Boyd, M. R., and Paull, K. D. (1995) Drug Development Research 34: 91-109). The human tumor cell lines of the cancer screening panel were grown in RPMI 1640 medium containing 5% fetal bovine serum and 2 mM L-glutamine. Cells were inoculated into 96 well microtiter plates in 100 μL at plating densities ranging from 5,000 to 40,000 cells/well depending on the doubling time of individual cell lines. After cell inoculation, the microtiter plates were incubated at 37° C., 5 % CO2, 95 % air and 100 % relative humidity for 24 hours prior to addition of experimental drugs.
(§2) After the 24 hour incubation period, two plates of each cell line were fixed in situ with TCA, to represent a measurement of the cell population for each cell line at the time of drug addition (Tz). Experimental drugs were solubilized in dimethyl sulfoxide at 400-fold the desired final maximum test concentration and stored frozen prior to use. At the time of drug addition, an aliquot of frozen concentrate was thawed and diluted to twice the desired final maximum test concentration with complete medium containing 50 μg/ml gentamicin. Additional four, 10-fold or ½ log serial dilutions were made to provide a total of five drug concentrations plus control. Aliquots of 100 μl of these different drug dilutions were added to the appropriate microtiter wells already containing 100 μl of medium, resulting in the required final drug concentrations.
(§3) Following drug addition, the plates were incubated for an additional 48 hours at 37° C., 5 % CO2, 95 % air, and 100 % relative humidity. For adherent cells, the assay was terminated by the addition of cold TCA. Cells were fixed in situ by the gentle addition of 50 μl of cold 50 % (w/v) TCA (final concentration, 10% TCA) and incubated for 60 minutes at 4° C. The supernatant was discarded, and the plates were washed five times with tap water and air dried. Sulforhodamine B (SRB) solution (100 μl) at 0.4 % (w/v) in 1 % acetic acid were added to each well, and plates were incubated for 10 minutes at room temperature. After staining, unbound dye was removed by washing five times with 1 % acetic acid and the plates were air dried. Bound stain was subsequently solubilized with 10 mM trizma base, and the absorbance was read on an automated plate reader at a wavelength of 515 nm. For suspension of the cells, the methodology used was the same except that the assay was terminated by fixing settled cells at the bottom of the wells by gently adding 50 μl of 80 % TCA (final concentration, 16% TCA). Using the seven absorbance measurements [time zero, (Tz), control growth, (C), and test growth in the presence of drug at the five concentration levels (Ti)], the percentage growth was calculated at each of the drug concentrations levels.
(§4) Percentage growth inhibition was calculated as: [(Ti−Tz)/(C−Tz)]×100 for concentrations for which Ti>/=Tz [(Ti−Tz)/Tz]×100 for concentrations for which Ti<Tz.
(§5) Growth inhibition of 50% (GI50) was calculated from [(Ti−Tz)/(C−Tz)]×100=50, which is the drug concentration resulting in a 50% reduction in the net protein increase (as measured by SRB staining) in control cells during the drug incubation. The G150 was calculated for each of the cell lines if the level of activity is reached; however, if the effect was not reached or is exceeded, the value for that parameter is expressed as greater or less than the maximum (10^−4 M) or minimum (10^−8 M) concentration tested.

Another assay relates to HOP-62. The note with it: Homo sapiens; HOP-62, Non-Small Cell Lung, 48 hours. The method, then:
as §1, §2, §3, §4, §5

Another assay has as its system MALME-3M. Particulars: Homo sapiens, Melanoma, 48 hours. Here is the method: as §1, §2, §3, §4, §5
Another assay concerns NCI-H322M. Particulars: Homo sapiens, Non-Small Cell Lung, 48 hours. The method, then:
as §1, §2, §3, §4, §5

The next assay concerns NCI-H522. The note with it: Homo sapiens; NCI-H522, Non-Small Cell Lung, 48 hours. Here is the method: as §1, §2, §3, §4, §5
A further assay relates to OVCAR-5. The note with it: Homo sapiens; OVCAR-5, Ovarian, 48 hours. The method, then:
as §1, §2, §3, §4, §5

For another assay, the system named is RXF 393. Particulars: Homo sapiens; RXF 393, Renal, 48 hours. Here is the method:
as §1, §2, §3, §4, §5

The test system of the next assay is SF-268. The note with it: Homo sapiens; SF-268, CNS, 48 hours. The method, then:
as §1, §2, §3, §4, §5

Structures are written as SMILES.

`CO[C@@H]1[C@H](OC(=O)N[C@@H](C(N)=O)C(C)C)CC[C@]2(CO2)[C@H]1[C@@]1(C)O[C@@H]1CC=C(C)C` [Example 5, (1-Carbamoyl-2-methyl-propyl)-carbamic acid-(3R, 4S, 5S, 6R )-5-methoxy-4-[(2R, 3R)-2-methyl-3-(3-methyl-but-2-enyl)-oxiranyl]-1-oxa-spiro[2.5]oct-6-yl ester]: the 50% growth inhibitory concentration (GI50) in the assay on 786-0 is 16.1 µM; with HOP-62, below 10 nM; in the assay with MALME-3M it was 53.1 nM; with NCI-H322M it was 46.8 nM; with NCI-H522, 12.9 µM; with OVCAR-5 it was 13.5 nM. Also, the GI50 in the assay on RXF 393 worked out at 40.2 µM; with SF-268, 26.1 µM.
